From patent US8110570B2, “Modulators of acetyl-coenzyme A carboxylase and methods of use thereof” (Cropsolution, Inc., priority 2008, dated 2012)

Legend:
hACC1 = target: T1, hACC1 (Homo sapiens, UniProt Q13085); assay: [14C]bicarbonate incorporation assay, overall ACC activity; format: biochemical; conditions: recombinant hACC1, overall ACC activity
T1 construct: PCR primers were designed for full-length hACC1 and hACC2 using GenBank submissions AY237919 and AJ575592, respectively; His tag (C); made in house; host or cells: baculovirus, Sf9 insect cells
Procedure: (§1) In vitro IC50 values of human ACC were determined using recombinant enzyme produced by standard procedures. For example, full-length cDNAs for both the human isoforms (hACC1 and hACC2) were each cloned and expressed as a recombinant protein using a baculovirus system. Double stranded cDNA from human fetal liver (Quick-Clone cDNA, cat. #7171-1) was purchased from BD/Clontech (Mt. View, Calif.). PCR primers were designed for full-length hACC1 and hACC2 using GenBank submissions AY237919 and AJ575592, respectively. The Advantage GC 2 PCR kit (BD/Clontech) was used for amplification. The PCR products (about 7 Kb) were TOPO-cloned into the pCR4Blunt vector (Invitrogen, Carlsbad, Calif.), and 6 clones of each gene were isolated. […] Full length versions of the two cDNAs corresponding to their respective Genbank sequences were assembled in pBluescript SK+ (Stratagene, La Jolla, Calif.) by combining error-free fragments from the PCR clones. The resulting hACC1 clone, designated pCS35, has six silent nucleotide differences compared to Genbank accession AY237919. The final hACC2 clone, designated pCS36, has ten silent nucleotide differences compared to Genbank accession AJ575592. Primers were designed to PCR amplify the cDNAs along with the in-frame 3′-his tag sequences from the pET vector and TOPO-cloned the resulting products into the Gateway® entry vector pENTR/D-TOPO. The ACC2 primers were designed to delete amino acids 1-148 and add Met-Gly in front of Lys149 in the final product. The resulting entry clones were transferred to BaculoDirect™ linear DNA (Invitrogen corp.) using the Gateway® LR recombination reaction. The recombinant baculovirus DNA was transfected into insect cells and viral amplification was performed according to the manufacturer's protocols. For protein expression sf9 cells were infected with a P3 viral stock in the presence of 50 uM biotin. The cells were harvested after 48-72 hr, lysed by sonication, and the resulting extract was clarified by centrifugation. ACC in the crude extract was concentrated by ammonium sulfate precipitation (40% w/v) and purified by Ni^2+-NTA chromatography (Novagen) followed by anion exchange chromatography on a UNO-Q column (BioRad).
(§2) Overall ACC activity in the hACC preparations is measured by following incorporation of [^14C]bicarbonate into […] essentially as described (Thumpy and Wakil, J Biol Chem 260, 6318-6323 (1985). Briefly, the reaction mixture (50 μL) contains: 50 mM Hepes (pH7.4), 20 mM K-Citrate, 20 mM Mg-Acetate 1.5 mM MgSO4, 2 mM DTT, 2 mM acetyl-CoA, 12 mM NaHCO3, 0.2 mM NaH^14CO3 (˜50 mCi/mmol), 0.01% (v/v) Triton X-100, 0.75 mg/mL BSA, 1% (v/v) DMSO (with or without inhibitor), and 0.3 μg (hACC1) or 0.15 μg (hACC2) enzyme. Reactions are initiated by the addition of ATP to a final concentration 2 mM. After 10 minutes at 37° C., the reaction is stopped by the addition of 2N HCl (50 μL). The samples are evaporated in a hood overnight, resuspended in H2O (200 μL), and incorporated label is quantified by scintillation counting in scintillation cocktail (3 mL). Inhibition data are fit to dose-response curves and IC50 values are reported (i.e. the concentration of inhibitor that gives 50% inhibition).

hACC2 = target: T2, hACC2 (Homo sapiens, UniProt O00763); assay: as above; format: biochemical; conditions: recombinant hACC2, overall ACC activity
T2 construct: delete amino acids 1-148 and add Met-Gly in front of Lys149 in the final product; His tag (C); made in house; host or cells: baculovirus, Sf9 insect cells
Procedure: as §1, §2

T2 sequence (O00763 149-2458 limits assumed): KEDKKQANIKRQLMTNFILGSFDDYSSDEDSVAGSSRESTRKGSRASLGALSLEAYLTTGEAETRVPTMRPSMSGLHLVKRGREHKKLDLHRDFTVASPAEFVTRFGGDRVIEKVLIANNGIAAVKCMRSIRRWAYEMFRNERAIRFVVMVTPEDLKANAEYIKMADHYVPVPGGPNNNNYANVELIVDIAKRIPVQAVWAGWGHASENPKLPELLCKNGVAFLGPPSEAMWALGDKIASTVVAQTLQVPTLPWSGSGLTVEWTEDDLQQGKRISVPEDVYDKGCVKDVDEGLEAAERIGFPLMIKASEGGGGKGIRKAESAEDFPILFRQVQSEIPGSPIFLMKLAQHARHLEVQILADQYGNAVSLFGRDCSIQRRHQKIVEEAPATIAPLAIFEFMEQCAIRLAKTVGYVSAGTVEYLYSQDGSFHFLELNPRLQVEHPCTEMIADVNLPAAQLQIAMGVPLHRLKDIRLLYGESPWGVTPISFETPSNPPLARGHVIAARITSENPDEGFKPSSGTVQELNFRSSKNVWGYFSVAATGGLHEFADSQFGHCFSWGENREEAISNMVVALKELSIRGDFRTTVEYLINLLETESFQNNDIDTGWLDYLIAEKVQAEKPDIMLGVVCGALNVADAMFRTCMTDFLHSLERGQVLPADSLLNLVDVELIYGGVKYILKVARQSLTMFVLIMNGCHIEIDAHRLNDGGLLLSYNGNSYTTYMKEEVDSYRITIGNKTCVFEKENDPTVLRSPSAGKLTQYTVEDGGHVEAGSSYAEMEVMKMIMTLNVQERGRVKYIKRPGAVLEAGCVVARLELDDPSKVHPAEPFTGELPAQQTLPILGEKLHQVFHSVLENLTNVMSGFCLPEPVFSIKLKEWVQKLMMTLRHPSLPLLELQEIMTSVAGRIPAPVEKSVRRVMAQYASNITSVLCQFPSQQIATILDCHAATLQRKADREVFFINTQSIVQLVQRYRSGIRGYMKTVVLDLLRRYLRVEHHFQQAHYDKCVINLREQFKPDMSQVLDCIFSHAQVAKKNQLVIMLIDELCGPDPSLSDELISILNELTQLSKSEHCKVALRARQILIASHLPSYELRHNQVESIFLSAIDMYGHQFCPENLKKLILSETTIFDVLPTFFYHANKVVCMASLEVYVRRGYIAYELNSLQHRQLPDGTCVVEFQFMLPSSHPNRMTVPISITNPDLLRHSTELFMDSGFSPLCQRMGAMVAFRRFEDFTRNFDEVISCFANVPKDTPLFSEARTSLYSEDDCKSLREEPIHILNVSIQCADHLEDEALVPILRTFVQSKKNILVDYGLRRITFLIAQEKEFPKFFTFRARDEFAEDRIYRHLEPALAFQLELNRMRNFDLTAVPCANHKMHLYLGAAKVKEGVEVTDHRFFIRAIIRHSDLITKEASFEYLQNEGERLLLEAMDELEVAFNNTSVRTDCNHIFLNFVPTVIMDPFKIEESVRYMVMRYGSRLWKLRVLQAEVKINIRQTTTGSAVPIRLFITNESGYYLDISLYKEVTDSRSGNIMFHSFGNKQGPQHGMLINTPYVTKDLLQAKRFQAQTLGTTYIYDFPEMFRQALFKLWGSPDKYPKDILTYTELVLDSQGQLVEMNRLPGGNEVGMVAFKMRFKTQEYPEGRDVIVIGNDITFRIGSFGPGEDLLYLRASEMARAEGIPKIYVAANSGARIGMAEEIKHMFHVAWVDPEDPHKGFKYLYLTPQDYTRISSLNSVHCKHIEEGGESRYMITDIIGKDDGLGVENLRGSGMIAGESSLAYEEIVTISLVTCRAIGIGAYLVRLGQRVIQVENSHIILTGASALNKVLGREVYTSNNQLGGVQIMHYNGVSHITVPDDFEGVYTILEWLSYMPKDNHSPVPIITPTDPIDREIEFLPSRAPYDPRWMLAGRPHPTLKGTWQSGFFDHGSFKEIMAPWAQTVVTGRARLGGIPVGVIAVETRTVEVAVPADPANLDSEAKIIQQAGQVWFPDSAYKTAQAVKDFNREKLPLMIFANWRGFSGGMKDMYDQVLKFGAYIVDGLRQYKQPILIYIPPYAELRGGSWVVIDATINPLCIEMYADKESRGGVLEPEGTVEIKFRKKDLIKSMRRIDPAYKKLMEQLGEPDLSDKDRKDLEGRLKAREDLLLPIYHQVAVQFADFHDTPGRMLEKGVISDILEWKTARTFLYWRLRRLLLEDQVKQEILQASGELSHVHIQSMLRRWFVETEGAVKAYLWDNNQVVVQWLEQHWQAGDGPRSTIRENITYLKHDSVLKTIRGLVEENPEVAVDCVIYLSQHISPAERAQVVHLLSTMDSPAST

Row | SMILES | IC50 (hACC1) [nM] | IC50 (hACC2) [nM]
1 | COc1cc(C(=O)N2CCC3(CC2)NC(=O)c2cc(NC(C)=O)ccc2O3)nc2c(OC)cccc12 [Compound 9] | 92 | 56
2 | COc1cc(C(=O)N2CCC3(CC2)NC(=O)c2cc(-c4nnn[nH]4)ccc2O3)nc2c(OC)cccc12 [Compound 10] | 16 | 11
3 | COc1ccc(OC)c2[nH]c(C(=O)N3CCC4(CC3)NC(=O)c3cc(Br)ccc3O4)cc12 [Compound 16] | 260 | 200
4 | COc1ccc(OC)c2[nH]c(C(=O)N3CCC4(CC3)NC(=O)c3cc(NC(C)=O)ccc3O4)cc12 [Compound 17] | 260 | 310
5 | COc1cccc2c(C)c(C(=O)N3CCC4(CC3)NC(=O)c3cc(Br)ccc3O4)[nH]c12 [Compound 23] | 140 | 180
6 | COc1cccc2c(C)c(C(=O)N3CCC4(CC3)NC(=O)c3cc(NC(C)=O)ccc3O4)[nH]c12 [Compound 24] | 100 | 77
7 | COc1ccc(OC)c2c1cc(C(=O)N1CCC3(CC1)NC(=O)c1cc(Br)ccc1O3)n2C [Compound 26] | 830 | 590
8 | COc1cc(C(=O)N2CCC3(CC2)NC(=O)c2cc(NC(C)=O)ccc2O3)cc2c(OC)cccc12 [Compound 31, 6-Acetamido-1′-[(4,8-dimethoxynaphth-2-yl)carbonyl]spiro[2H-1,3-benzoxazin-2,4′-piperidin]-4-(3H)-one] | 6.2 | 3
9 | COc1cc(C(=O)N2CCC3(CC2)NC(=O)c2cc(Br)ccc2O3)nc2c(C3CC3)cccc12 [Compound 32] | 180 | 110
10 | COc1cc(C(=O)N2CCC3(CC2)NC(=O)c2cc(Br)ccc2O3)nc2ccccc12 [Compound 40] | – | 900
11 | COc1cccc2ccc(C(=O)N3CCC4(CC3)NC(=O)c3cc(Br)ccc3O4)nc12 [Compound 44] | 740 | 490
12 | COc1cc(C(=O)N2CCC3(CC2)NC(=O)c2cc(Br)ccc2N3)nc2c(OC)cccc12 [Compound 71, 6′-Bromo-1-[(4,8-dimethoxyquinoline-2-yl)carbonyl]spiro[piperidine-4,2′(1′H)-quinazolin]-4′-(3′H)-one] | 1000 | 490
13 | COc1cc2c(OC)cccc2cc1C(=O)N1CCC2(CC1)NC(=O)c1cc(Br)ccc1N2 [Compound 90] | 2200 | 1100
14 | COc1cc(C(=O)N2CCC3(CC2)NC(=O)c2cc(Br)ccc2N3)nc2c(C(C)C)cccc12 [Compound 91] | 2000 | 3700
15 | COc1cc(C(=O)N2CCC3(CC2)NC(=O)c2cc(Br)ccc2N3)nc2c(SC)cccc12 [Compound 93] | 430 | 1100
16 | O=C1NC2(CCN(C(=O)c3cccc(-c4cc[nH]n4)c3)CC2)Oc2ccc(Br)cc21 [Compound 103, 6-Bromo-1′-[3-(1H-pyrazol-3-yl)benzoyl]spiro[2H-1,3-benzoxazin-2,4′-piperidin]-4-(3H)-one] | 1300 | 700
17 | O=C1NC2(CCN(C(=O)c3ccc4[nH]cnc4c3)CC2)Oc2ccc(Br)cc21 [Compound 109, 1′-[(1H-benzimidazol-5-yl)carbonyl]-6-bromospiro[2H-1,3-benzoxazin-2,4′-piperidin]-4-(3H)-one] | 600 | 2900
18 | O=C1NC2(CCN(C(=O)c3ccc4[nH]nnc4c3)CC2)Oc2ccc(Br)cc21 [Compound 110, 1′-[(1H-benzotriazol-5-yl)carbonyl]-6-bromospiro[2H-1,3-benzoxazin-2,4′-piperidin]-4-(3H)-one] | 6700 | 4600
19 | COc1cc(C(=O)N2CCC3(CC2)NC(=O)c2cc(Br)ccc2O3)nc2c(C(C)C)cccc12 [Compound 134] | 4700 | –
20 | COc1cc(C(=O)N2CCC3(CC2)NC(=O)c2cc(Br)ccc2O3)c(OC)c2ccccc12 [Compound 135, 6-Bromo-1′-[(1,4-dimethoxynaphth-2-yl)carbonyl]spiro[2H-1,3-benzoxazin-2,4′-piperidin]-4-(3H)-one] | 2200 | –
21 | Cn1nccc1-c1cccc(C(=O)N2CCC3(CC2)NC(=O)c2cc(Br)ccc2O3)c1 [Compound 141, 6-Bromo-1′-[3-(1-methyl-1H-pyrazol-5-yl)benzoyl]spiro[2H-1,3-benzoxazin-2,4′-piperidin]-4-(3H)-one] | – | 1300

Row | SMILES | IC50 (hACC1) [nM] | IC50 (hACC2) [nM]
22 | COc1cc(C(=O)N2CCC3(CC2)NC(=O)c2cc4ccccc4cc2O3)nc2c(SC)cccc12 [Compound 158] | – | 8
23 | COc1cccc2c(C)c(C(=O)N3CCC4(CC3)NC(=O)c3cc5ccccc5cc3O4)[nH]c12 [Compound 161, 1′-[[7-Methoxy-3-methyl-1H-indol-2-yl)carbonyl]spiro[2H-naphtho[2,3-e]-1,3-oxazin-2,4′-piperidin]-4-(3H)-one] | 8 | –
24 | COc1ccc2cc3c(cc2c1)C(=O)NC1(CCN(C(=O)c2cc(OC)c4cccc(OC)c4c2)CC1)O3 [Compound 162] | 5 | –
25 | COc1cc(C(=O)N2CCC3(CC2)NC(=O)c2cc(OC(C)C)ccc2O3)cc2c(OC)cccc12 [Compound 170] | 6 | –
26 | COc1cc(C(=O)N2CCC3(CC2)NC(=O)c2cc(OC(F)(F)F)ccc2O3)cc2c(OC)cccc12 [Compound 173] | 6 | –
27 | COc1cc(C(=O)N2CCC3(CC2)NC(=O)c2cc(OC(F)(F)F)ccc2O3)cc2c(SC)cccc12 [Compound 175] | 21 | –
28 | CCOc1ccc2c(c1)C(=O)NC1(CCN(C(=O)c3cc(OC)c4cccc(SC)c4c3)CC1)O2 [Compound 176] | 5 | –
29 | COc1ccc2c(c1)C(=O)NC1(CCN(C(=O)c3cc(OC)c4cccc(SC)c4c3)CC1)O2 [Compound 177] | 5 | –
30 | COc1cc(C(=O)N2CCC3(CC2)NC(=O)c2cc(C(C)C)ccc2O3)cc2c(OC)cccc12 [Compound 178] | 14 | –
31 | COc1cc(C(=O)N2CCC3(CC2)NC(=O)c2cc(C(C)C)ccc2O3)cc2c(SC)cccc12 [Compound 179] | 38 | –
32 | COc1ccc2c(c1)C(=O)NC1(CCN(C(=O)c3cc4c(OC)ccc(OC)c4n3C)CC1)O2 [Compound 181] | 420 | –
33 | COc1ccc2c(c1)C(=O)NC1(CCN(C(=O)c3cc4c(OC)ccc(OC)c4[nH]3)CC1)O2 [Compound 182] | 160 | –
34 | COc1cccc2c(C)c(C(=O)N3CCC4(CC3)NC(=O)c3cc(N)ccc3O4)[nH]c12 [Compound 183] | 430 | –
35 | COc1ccc2c(c1)C(=O)NC1(CCN(C(=O)c3[nH]c4c(OC)cccc4c3C)CC1)N2 [Compound 189, 6′-Methoxy-1-[[7-methoxy-3-methyl-1H-indol-2-yl)carbonyl]spiro-[piperidine-4,2′(1′H)-quinazolin]-4′-(3′H)-one] | 500 | –
36 | COc1cc2c(cc1OC)C(=O)NC1(CCN(C(=O)c3cc(OC)c4cccc(OC)c4c3)CC1)N2 [Compound 190] | 62 | –
37 | COc1cc2c(cc1OC)C(=O)NC1(CCN(C(=O)c3cc(OC)c4cccc(OC)c4n3)CC1)N2 [Compound 191] | 190 | –
38 | COc1cc(C(=O)N2CCC3(CC2)NC(=O)c2cc(C)ccc2N3)cc2c(OC)cccc12 [Compound 192] | 160 | –
39 | COc1cc(C(=O)N2CCC3(CC2)NC(=O)c2cc(OC(F)(F)F)ccc2N3)cc2c(OC)cccc12 [Compound 194] | 70 | –
40 | COc1cc(C(=O)N2CCC3(CC2)NC(=O)c2cc(OC(F)(F)F)ccc2N3)nc2c(OC)cccc12 [Compound 195] | 500 | –
41 | COc1cc(C(=O)N2CCC3(CC2)NC(=O)c2cc(N4CCOCC4)ccc2O3)cc2c(OC)cccc12 [Compound 197] | 4 | –
